Earlier results as cited in patent publication US20120021445A1, “Pluripotent Stem Cells for Drug Induced Myopathy and Malignant Hyperthermia” (priority 2010, published 2012).

Columns and labels:
[1] = rhabdomyolysis defined as acute elevation of CK (>15 000 ULN); unit not given

| SMILES | reported incidence of rhabdomyolysis [1] | lack of efficacy in malignant hyperthermia patients |
| --- | --- | --- |
| CC(C)c1c(C(=O)Nc2ccccc2)c(-c2ccccc2)c(-c2ccc(F)cc2)n1CC[C@@H](O)C[C@@H](O)CC(=O)O [atrovarstatin] | 0.04 |  |
| O=C1CN(/N=C/c2ccc(-c3ccc([N+](=O)[O-])cc3)o2)C(O)=N1 [dantrolene] |  | up to 5% |
| CC[C@H](C)C(=O)O[C@H]1C[C@@H](C)C=C2C=C[C@H](C)[C@H](CC[C@@H]3C[C@@H](O)CC(=O)O3)[C@H]21 [lovostatin] | 0.19 |  |
| CC[C@H](C)C(=O)O[C@H]1C[C@H](O)C=C2C=C[C@H](C)[C@H](CC[C@@H](O)C[C@@H](O)CC(=O)O)[C@H]21 [pravastatin] | 0.04 |  |
